Patent US20230013304A1, “N2-ARYLMETHYL-4-HALOALKYL-PYRIDAZIN-3-ONE CFTR MODULATORS FOR THE TREATMENT OF CYSTIC FIBROSIS” (UNIVERSITE DE REIMS CHAMPAGNE-ARDENNE, priority 2019, published 2023)

System: CFTR channel
Assay: CFTR-dependent halide transport, YFP-H148Q/I152L fluorescent probe (Premo Halide Sensor kit) in osteoblasts
Format: cell-based
Conditions: for restoration of the CFTR channel activity: on average, compared with reference substances (Ivacaftor, Lumacaftor, Orkambi)
Method: To evaluate the action of the compounds according to the invention on the restoration of CFTR activity, said compounds were tested in vitro using a suitable Premo Halid Sensor kit (Invitrogen).
The transport of CFTR-dependant chloride ions is thus first evaluated in osteoblasts with the use of a fluorescent probe (halide-sensitive yellow fluorescent protein (YFP)-H148Q/I152 L protein (Life Technologies, Saint Aubin, France)) (FIG. 1).
48 h after transfection of the probe into the cell, CFTR channel activity is stimulated using a solution composed of forskolin, 3-isobutyl-1-methylxanthine and apigenine (each component in a concentration of 10 μM). An iodine solution (140 mM) was then added and the fluorescence was recorded using a plate reader (400 ms/point; Ft) over a period of 60 s (baseline; F0). The decrease in the Ft/F0 ratio represents the restoration of chloride activity of the CFTR channel.
For quantitative analyses, the gradients of the signals obtained are processed in non-linear regressions and correlated to the level of conductance of chloride ions.

Row | Molecule | restoration of CFTR channel activity compared with Ivacaftor and Lumacaftor (osteoblasts, FIG. 1) | restoration of CFTR channel activity compared with Orkambi (osteoblasts, FIG. 1) | restoration of the CFTR channel activity (osteoblasts, FIG. 1) [%] | decrease in fluorescence (Ft/F0) in the presence of the inhibitor (CFTRinh-172 10 μM, untreated osteoblasts, control)
1 | COc1ccc(-c2cc(C(F)(F)F)c(=O)n(Cc3ccccc3)n2)cc1OC [Compound 1, 2-benzyl-6-(3,4-dimethoxyphenyl)-4-(trifluoromethyl)pyridazin-3(2H)-one] | better restoration of CFTR channel activity than those obtained with Ivacaftor and Lumacaftor | restoration of CFTR channel activity similar to that obtained with Orkambi | 150 | 
2 | CFTRinh-172 [reference compound] |  |  |  | no decrease in fluorescence was observed
3 | COc1ccc(Cn2nc(-c3ccc(OC(F)F)c(OC)c3)cc(C(F)(F)F)c2=O)cc1 [Compound 4, 6-(4-(difluoromethoxy)-3-methoxyphenyl)-2-(4-methoxybenzyl)-4-(trifluoromethyl)pyridazin-3(2H)-one] | better restoration of CFTR channel activity than those obtained with Ivacaftor and Lumacaftor |  | 150 | 
